Experimental data from ChEMBL document CHEMBL4765275, “Discovery of novel tertiary amide derivatives as NEDDylation pathway activators to inhibit the tumor progression in vitro and in vivo” (Eur J Med Chem, 2020).
Activity calls are given as the source filed them. No cut-off for these calls is given here.

What was measured:
MGC-803 [1] = experiment: Induction of apoptosis in human MGC-803 cells assessed as upregulation of Bax expression at 50 to 150 nmol/L measured after 48 hrs by Western blot analysis; assay type: functional, cell-based; conditions: dose 50-150 nmol/L
MGC-803 [2] = experiment: Induction of apoptosis in human MGC-803 cells assessed as viable cells at 75 nmol/L measured after 48 hrs by Annexin V-FITC/propidium iodide staining based flow cytometry (reference value: 91.7%); assay type: functional; conditions: read-out: Activity
MGC-803 [3] = experiment: Induction of apoptosis in human MGC-803 cells assessed as increase in activated caspase-9 expression at 50 to 150 nmol/L measured after 48 hrs by Western blot analysis; assay type: functional, cell-based; conditions: dose 50-150 nmol/L
MGC-803 [4] = experiment: Induction of morphological changes in human MGC-803 cells assessed as increase in cell debris at 50 to 150 nmol/L measured after 48 hrs by bright field microscopic analysis; assay type: functional, cell-based; conditions: dose 50-150 nmol/L
MGC-803 [5] = experiment: Induction of apoptosis in human MGC-803 cells assessed as late apoptotic cells at 150 nmol/L measured after 48 hrs by Annexin V-FITC/propidium iodide staining based flow cytometry (reference value: 5.6%); assay type: functional
MGC-803 [6] = experiment: Antitumor activity against human MGC-803 cells xenografted in mouse assessed as reduction in tumor volume at 100 to 150 mg/kg, sc measured after 28 days by caliper method; assay type: functional, organism-based; conditions: dose 100-150 mg/kg, time 28.0 day

COc1ccc(CN(C(=O)Cc2cccs2)c2cc(OC)c(OC)c(OC)c2)cc1
Activity (MGC-803 [1]): Active | viability at 0.075 µM (MGC-803 [2]): 74.4% | Activity (MGC-803 [3]): Active | Activity (MGC-803 [4]): Active | Activity (MGC-803 [5]): 47.6% | Activity (MGC-803 [6]): Active
